Test results: ChEMBL document CHEMBL2010643 (Bioorg Med Chem Lett, 2012)
Active and inactive are the calls of the source.

Key:
[1] = target: T1, Leucine-rich repeat serine/threonine-protein kinase 2 (Homo sapiens, UniProt Q5S007); assay: Inhibition of wild type LRRK2 phosphorylation at Ser935 in human lymphoblastoid cells at 0.03 to 3 uM after 90 mins by Western blot analysis; assay type: cell-based
Mus musculus [2] = assay: Inhibition of LRRK2 phosphorylation at Ser910 in C57BL/6 mouse spleen at 100 mg/kg, po administered for 8 hrs followed by 2 hrs dosing; assay type: functional, organism-based; set-up: dose 100 mg/kg
[3] = target: T1, Leucine-rich repeat serine/threonine-protein kinase 2; assay: Inhibition of wild type LRRK2 phosphorylation at Ser910 in human lymphoblastoid cells at 0.03 to 3 uM after 90 mins by Western blot analysis; assay type: cell-based
Mus musculus [4] = assay: Inhibition of LRRK2 phosphorylation at Ser935 in C57BL/6 mouse kidney at 100 mg/kg, po administered for 8 hrs followed by 2 hrs dosing; assay type: functional, organism-based; set-up: dose 100 mg/kg
[5] = target: T1, Leucine-rich repeat serine/threonine-protein kinase 2; conditions: HEK293; 0.03 to 3 uM
Description: Inhibition of wild-type LRRK2 phosphorylation at Ser935 expressed in HEK293 cells at 0.03 to 3 uM after 90 mins by immunoblot analysis

Mus musculus [6] = assay: Inhibition of LRRK2 phosphorylation at Ser910 in C57BL/6 mouse kidney at 100 mg/kg, po administered for 8 hrs followed by 2 hrs dosing; assay type: functional, organism-based; set-up: dose 100 mg/kg
Mus musculus [7] = assay: Inhibition of LRRK2 phosphorylation at Ser935 in C57BL/6 mouse spleen at 100 mg/kg, po administered for 8 hrs followed by 2 hrs dosing; assay type: functional, organism-based; set-up: dose 100 mg/kg
[8] = target: T1, Leucine-rich repeat serine/threonine-protein kinase 2; conditions: HEK293; 0.03 to 3 uM; remark: listed apart in the source
Description: Inhibition of wild-type LRRK2 phosphorylation at Ser910 expressed in HEK293 cells at 0.03 to 3 uM after 90 mins by immunoblot analysis

[9] = target: T1, Leucine-rich repeat serine/threonine-protein kinase 2; assay: Inhibition of wild-type LRRK2 expressed in HEK293 cells using nictide and [gamma32]ATP as substrate

T1 sequence (Q5S007 whole entry): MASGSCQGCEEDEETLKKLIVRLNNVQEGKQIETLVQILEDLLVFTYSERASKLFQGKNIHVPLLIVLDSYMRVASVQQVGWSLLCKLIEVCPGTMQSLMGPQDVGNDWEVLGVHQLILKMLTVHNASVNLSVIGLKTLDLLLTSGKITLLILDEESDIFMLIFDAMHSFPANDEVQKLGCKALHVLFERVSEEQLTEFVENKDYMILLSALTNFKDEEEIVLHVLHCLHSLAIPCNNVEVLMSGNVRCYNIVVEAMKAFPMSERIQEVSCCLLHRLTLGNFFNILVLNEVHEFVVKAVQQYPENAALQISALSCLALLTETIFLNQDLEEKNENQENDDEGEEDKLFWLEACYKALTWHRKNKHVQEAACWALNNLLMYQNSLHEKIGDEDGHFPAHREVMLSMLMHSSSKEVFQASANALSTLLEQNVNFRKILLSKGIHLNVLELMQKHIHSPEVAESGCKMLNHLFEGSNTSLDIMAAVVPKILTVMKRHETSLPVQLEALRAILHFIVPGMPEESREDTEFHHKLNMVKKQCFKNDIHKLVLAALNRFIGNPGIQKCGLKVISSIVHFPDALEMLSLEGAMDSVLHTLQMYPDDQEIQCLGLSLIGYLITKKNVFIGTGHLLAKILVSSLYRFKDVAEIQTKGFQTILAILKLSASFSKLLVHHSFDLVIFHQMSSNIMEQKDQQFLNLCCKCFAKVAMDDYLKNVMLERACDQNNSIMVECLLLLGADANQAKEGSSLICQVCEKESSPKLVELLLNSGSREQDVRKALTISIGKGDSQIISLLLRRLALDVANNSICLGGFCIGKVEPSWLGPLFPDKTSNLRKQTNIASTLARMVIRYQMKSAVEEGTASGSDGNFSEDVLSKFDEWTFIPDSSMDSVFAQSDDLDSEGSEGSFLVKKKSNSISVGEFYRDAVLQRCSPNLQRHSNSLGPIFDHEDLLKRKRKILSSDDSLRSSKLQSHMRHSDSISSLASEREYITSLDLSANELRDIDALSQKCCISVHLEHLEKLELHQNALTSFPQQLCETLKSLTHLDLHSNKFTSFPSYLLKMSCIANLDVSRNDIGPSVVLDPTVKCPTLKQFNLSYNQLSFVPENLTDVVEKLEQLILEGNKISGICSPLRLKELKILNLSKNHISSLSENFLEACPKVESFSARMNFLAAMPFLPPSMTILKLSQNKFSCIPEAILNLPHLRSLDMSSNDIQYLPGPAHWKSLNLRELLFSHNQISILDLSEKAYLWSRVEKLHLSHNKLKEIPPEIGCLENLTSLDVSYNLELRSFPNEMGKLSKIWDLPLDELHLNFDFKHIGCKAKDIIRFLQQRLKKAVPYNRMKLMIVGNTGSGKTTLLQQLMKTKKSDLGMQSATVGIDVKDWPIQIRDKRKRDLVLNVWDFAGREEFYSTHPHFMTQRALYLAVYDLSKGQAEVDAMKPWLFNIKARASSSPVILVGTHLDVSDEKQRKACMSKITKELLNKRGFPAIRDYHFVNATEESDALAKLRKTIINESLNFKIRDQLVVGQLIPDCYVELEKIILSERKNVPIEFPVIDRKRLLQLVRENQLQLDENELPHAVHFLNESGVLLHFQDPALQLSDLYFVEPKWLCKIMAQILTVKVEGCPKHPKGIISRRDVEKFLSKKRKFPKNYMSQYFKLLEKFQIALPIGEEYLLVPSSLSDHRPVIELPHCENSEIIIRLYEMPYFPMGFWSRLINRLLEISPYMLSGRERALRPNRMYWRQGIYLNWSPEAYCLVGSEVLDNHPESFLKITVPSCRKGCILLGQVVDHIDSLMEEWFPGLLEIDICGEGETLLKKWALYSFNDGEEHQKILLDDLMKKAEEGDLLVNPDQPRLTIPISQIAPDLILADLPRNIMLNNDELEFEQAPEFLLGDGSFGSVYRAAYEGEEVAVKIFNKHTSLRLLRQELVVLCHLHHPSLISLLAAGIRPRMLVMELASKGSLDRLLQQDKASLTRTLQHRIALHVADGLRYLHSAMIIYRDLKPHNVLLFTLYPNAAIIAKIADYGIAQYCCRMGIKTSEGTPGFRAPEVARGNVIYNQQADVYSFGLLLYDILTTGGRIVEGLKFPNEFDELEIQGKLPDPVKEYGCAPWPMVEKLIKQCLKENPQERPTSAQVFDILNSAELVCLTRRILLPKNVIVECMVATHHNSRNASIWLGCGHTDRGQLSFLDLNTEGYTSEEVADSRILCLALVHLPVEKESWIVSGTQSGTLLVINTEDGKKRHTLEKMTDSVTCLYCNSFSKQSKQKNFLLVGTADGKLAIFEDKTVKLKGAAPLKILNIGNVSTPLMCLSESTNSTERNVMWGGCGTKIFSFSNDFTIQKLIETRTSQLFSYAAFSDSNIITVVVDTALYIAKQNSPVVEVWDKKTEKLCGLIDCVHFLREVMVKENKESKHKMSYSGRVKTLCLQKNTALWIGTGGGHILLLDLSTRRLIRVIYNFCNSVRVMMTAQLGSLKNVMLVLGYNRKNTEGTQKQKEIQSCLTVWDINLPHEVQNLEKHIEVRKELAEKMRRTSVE

COc1cc(C(=O)N2CCC(N3CCN(C)CC3)CC2)ccc1Nc1ncc2c(n1)N(C)c1ccccc1C(=O)N2C
13 nM: IC50 [9]
active: inhibition [1] | inhibition (Mus musculus [2]) | inhibition [3] | inhibition (Mus musculus [4]) | inhibition [5] | inhibition (Mus musculus [6]) | inhibition (Mus musculus [7]) | inhibition [8]
